Columns and labels:
WWP1 = target: T1, WWP1 (Mus musculus, UniProt Q8BZZ3); experiment: OSE2 (osteocalcin) luciferase reporter assay, primary screen; format: cell-based, murine
T1 construct: The LKO.1 lentiviral vectors expressing RNAi against murine WWP1; endogenous in cells; host or cells: C3H10T1/2 (murine mesenchymal stem cell line)
Method: A cell-based reporter assay was modified for use as a primary screen. It is based on the inhibition by WWPI of Runx2 activation of a target promoter sequence from the osteocalcin gene. The murine mesenchymal stem cell line, C3H10T1/2 was maintained in DMEM+10% FBS. Cells were seeded overnight in a 12-wlel dish at 8×10^4 cells/well and transfected with the multimerized osteocalcin (OSE) luciferase (6×OSE2) reporter gene plasmid and combinations of expression constructs, as indicated, by Effectene (Qiagen). Total amounts of transfected DNA were kept constant by supplementing with control empty expression vector plasmids. All cells were cotransfected with pRL-TK (Promega) to control for transfection efficience. Forty-eight hours after transfection, cells were harvested and lysed in 1×Passive Lysis Buffer (Promega) and luciferase assays performed using the Dual-Luciferase Reporter Assay System (Promega).
Runx2 transactivation function in luciferase reporter assays was enhanced in WWPli cells. The LKO.1 lentiviral vectors expressing RNAi against murine WWP1, and GFP were cotransfected along with D8.9 and VSV-G plasmids into […] cells utilizing Effectene (Qiagen).

[1] = test system: primary human mesenchymal stem cells (MSCs); experiment: Human osteoblast differentiation in vitro (mineralization); format: cell-based; settings: compound included in the MSC osteoblast differentiation culture system
Method: This cell-based assay uses a 96-well format in which primary human mesenchymal stem cells (MSCs) are differentiated into osteoblasts following an established protocol that results in a high rate of differentiation. To induce osteoblast differentiation, MSC are seeded at a low density (3.1×10^3 cells per cm2) and cultured in media containing β-glycerolphosphate and ascorbic acid for fourteen days. For testing of candidate compounds, MSCs will be differentiated in the presence of the compounds for the duration of the 14-day culture period. Osteoblast differentiation is then assayed via a simple colorometric readout that reflects the levels of cellular alkaline phosphates (ALP), an enzyme present in differentiating osteoblasts but absent in MSCs. ALP levels are then normalized to cell number, which is measured by utilizing the Alamar blue assay. Mineralization can be assessed by staining with xylenol orange. The screen and the 96-well format will allow multiple compounds to be tested at various concentrations. A substantial number of compounds may be identified that are active at a nanomolar concentration.

T1 sequence (Q8BZZ3 whole entry): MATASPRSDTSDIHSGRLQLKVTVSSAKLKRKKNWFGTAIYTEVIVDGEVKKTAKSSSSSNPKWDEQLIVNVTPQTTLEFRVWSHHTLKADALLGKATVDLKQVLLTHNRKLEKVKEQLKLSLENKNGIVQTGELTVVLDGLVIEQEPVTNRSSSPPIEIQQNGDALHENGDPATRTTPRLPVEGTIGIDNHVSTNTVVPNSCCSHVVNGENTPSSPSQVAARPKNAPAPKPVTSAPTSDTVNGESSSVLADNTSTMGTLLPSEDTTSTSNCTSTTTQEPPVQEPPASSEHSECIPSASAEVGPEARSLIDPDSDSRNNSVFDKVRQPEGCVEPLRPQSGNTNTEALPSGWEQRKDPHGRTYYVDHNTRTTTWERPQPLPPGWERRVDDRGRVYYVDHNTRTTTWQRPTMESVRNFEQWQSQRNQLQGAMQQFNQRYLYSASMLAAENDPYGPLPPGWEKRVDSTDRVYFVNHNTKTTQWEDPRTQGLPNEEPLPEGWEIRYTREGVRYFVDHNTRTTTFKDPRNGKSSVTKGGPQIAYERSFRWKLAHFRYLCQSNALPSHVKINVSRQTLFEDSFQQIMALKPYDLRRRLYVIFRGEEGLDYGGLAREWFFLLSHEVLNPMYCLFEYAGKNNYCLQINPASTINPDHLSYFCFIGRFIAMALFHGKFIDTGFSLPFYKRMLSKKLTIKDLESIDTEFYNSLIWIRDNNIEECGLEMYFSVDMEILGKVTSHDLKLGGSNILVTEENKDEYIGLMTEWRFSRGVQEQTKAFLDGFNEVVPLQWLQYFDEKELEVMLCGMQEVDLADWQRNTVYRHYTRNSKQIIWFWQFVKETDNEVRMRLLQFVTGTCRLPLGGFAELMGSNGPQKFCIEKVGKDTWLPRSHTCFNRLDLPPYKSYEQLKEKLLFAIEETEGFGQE

In the case of `O=c1[nH]cc(CS(=O)(=O)Cc2c[nH]c(=O)[nH]c2=O)c(=O)[nH]1` [5,5′-(sulfonyldimethylene)diuracil], the “Runx2 transactivation in the OSE2 reporter assay” value (WWP1; C3H10T1/2 cells, 6xOSE2 luciferase reporter) is reported as “increase Runx2 transactivation”, the “WWP1 inhibition inferred from the OSE2 reporter assay” value (WWP1; concluded from increased Runx2 transactivation) is reported as “inhibit WWP1” and the “formation of mineralized nodules” value [1] is reported as “substantially increased formation of mineralized nodules”.
